Results on one compound are retold here after patent US20160002299A1, “NON-IMMUNOSUPPRESSIVE CYCLOSPORIN DERIVATIVES AS ANTIVIRAL AGENTS” (UCL BUSINESS PLC, priority 2013, published 2016).

Experiment [1] deals with HIV-1. Nature of the experiment: HIV-1 replication in monocyte derived macrophages (Gag p24 staining, infected cells counted). As to conditions: primary MDM, NL4.3 Bal, MOI 0.2, 10 μM Compound 1 vs DMSO control, FIG. 2. In kind it is cell-based. Here is the method:
(§1) Primary monocyte-derived macrophages (MDM) were prepared from fresh blood from healthy volunteers. Peripheral blood mononuclear cells were isolated by Ficoll-Hypaque (Axis-Shield) density centrifugation. The isolated cells were washed with PBS and plated in RPMI (Invitrogen) supplemented with 10% heat-inactivated autologous human serum (HS) and 40 ng/ml macrophage colony stimulating factor (M-CSF) (R&D systems). The medium was then refreshed after 3 days (RPMI 1640 with 10% HS), removing any remaining non-adherent cells. After 6 days, media was replenished with
(§2) RPMI containing 5% type AB HS (Sigma-Aldrich-Aldrich). Replicate experiments were performed with cells derived from different donors.
(§3) Virus particles were produced by transient transfection of HEK293T cells. 3.5 μg of molecular clone DNA; NL4.3 Bal was transfected using Fugene 6 transfection reagent (Promega). Virus supernatants were harvested 48 hr, 72 hr and 96 hr post transfection. […] All virus preparations were quantified by reverse transcriptase (RT) enzyme linked immunosorbant assay (ELISA) (Roche). […]
(§4) Institute of Biological Standards AIDS Reagents Programme) and a secondary antibody linked to beta galactosidase. […] Cells were stained for Gag p24 at specific time points after infection and infected colonies counted. […]

The test system of another experiment is IFN-β. As to the kind of experiment: IFN-β ELISA of supernatants of HIV-1 infected monocyte derived macrophages. In kind it is cell-based, human. As to conditions: HIV-1 infected MDM, 10 μM Compound 1, supernatants, FIG. 3. Here is the method:
as §1, §2, §3, §4
A general note: An ELISA detects its analyte on a solid surface through an enzyme-linked reagent.

In experiment [2] the test system is HIV-1. Nature of the experiment: Single round HIV-1 infection of monocyte derived macrophages. In kind it is cell-based. As to conditions: MDM at MOI of 0.1-1, in the presence of Compound 1, FIG. 4. Here is the method: as §1, §2, §3, §4

Regarding `C/C=C/C[C@@H](C)[C@@H](O)[C@H]1C(=O)N[C@@H](CC)C(=O)N(C)[C@H](Cc2ccc(C(=O)O)cc2)C(=O)N(C)[C@@H](CC(C)C)C(=O)N[C@@H](C(C)C)C(=O)N(C)[C@@H](CC(C)C)C(=O)N[C@@H](C)C(=O)N[C@H](C)C(=O)N(C)[C@@H](CC(C)C)C(=O)N(C)[C@@H](CC(C)C)C(=O)N(C)[C@@H](C(C)C)C(=O)N1C` [Compound 1], the “HIV-1 replication (number of infected cells)” value in the experiment on HIV-1 [1] is given as “completely suppressed HIV-1 replication”. Also, the “production of IFN-β” value with IFN-β was “elicited the production of IFN-β”. Further, in the experiment with HIV-1 [2], the “infection lower after single round infection” value was 5-7 fold.
